Assay results reported in article PMC5355060, “Preclinical pharmacodynamic evaluation of drug candidate SKLB-178 in the treatment of non-small cell lung cancer” (Oncotarget, 2017).

How the values were obtained:
Assay type in all cases: biochemical
[1] = biological target: KDR (VEGFR2) (Homo sapiens, UniProt P35968); assay: […] radiolabeled kinase assay (Millipore KinaseProfiler)
[2] = biological target: T1, PDGFRα (Homo sapiens, UniProt P16234); assay: […] radiolabeled kinase assay, single dose […]
T1 construct: gene PDGFRA

[3] = biological target: MET (Homo sapiens, UniProt P08581); assay: […] radiolabeled kinase assay, single dose […]
[4] = biological target: EGFR L858R/T790M (Homo sapiens, UniProt P00533, T790M/L858R); assay: […] radiolabeled kinase assay (Millipore KinaseProfiler)
[5] = biological target: EGFR L858R (Homo sapiens, UniProt P00533, L858R); assay: as above
[6] = biological target: ErbB4 (Homo sapiens, UniProt Q15303); assay: […] radiolabeled kinase assay, single dose […]
[7] = biological target: EGFR (Homo sapiens, UniProt P00533); assay: […] radiolabeled kinase assay (Millipore KinaseProfiler)
[8] = biological target: Src (Homo sapiens, UniProt P12931); assay: as above
Chain of Src (P12931 2-536): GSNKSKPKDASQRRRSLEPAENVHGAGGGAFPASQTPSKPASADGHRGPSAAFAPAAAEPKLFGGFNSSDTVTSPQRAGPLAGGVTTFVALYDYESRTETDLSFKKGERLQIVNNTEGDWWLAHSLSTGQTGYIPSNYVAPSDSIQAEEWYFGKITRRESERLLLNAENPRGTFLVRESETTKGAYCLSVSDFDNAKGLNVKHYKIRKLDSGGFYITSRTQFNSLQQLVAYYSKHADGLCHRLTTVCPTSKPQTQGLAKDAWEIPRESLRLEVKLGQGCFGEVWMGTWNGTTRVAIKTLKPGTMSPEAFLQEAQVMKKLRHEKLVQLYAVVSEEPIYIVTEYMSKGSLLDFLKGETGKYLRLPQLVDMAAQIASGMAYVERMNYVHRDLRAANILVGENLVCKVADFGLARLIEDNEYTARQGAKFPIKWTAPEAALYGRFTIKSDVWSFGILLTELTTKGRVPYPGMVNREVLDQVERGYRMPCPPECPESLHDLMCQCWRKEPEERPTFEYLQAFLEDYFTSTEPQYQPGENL

Chain of EGFR L858R/T790M (P00533 669-1210 T790M/L858R limits assumed): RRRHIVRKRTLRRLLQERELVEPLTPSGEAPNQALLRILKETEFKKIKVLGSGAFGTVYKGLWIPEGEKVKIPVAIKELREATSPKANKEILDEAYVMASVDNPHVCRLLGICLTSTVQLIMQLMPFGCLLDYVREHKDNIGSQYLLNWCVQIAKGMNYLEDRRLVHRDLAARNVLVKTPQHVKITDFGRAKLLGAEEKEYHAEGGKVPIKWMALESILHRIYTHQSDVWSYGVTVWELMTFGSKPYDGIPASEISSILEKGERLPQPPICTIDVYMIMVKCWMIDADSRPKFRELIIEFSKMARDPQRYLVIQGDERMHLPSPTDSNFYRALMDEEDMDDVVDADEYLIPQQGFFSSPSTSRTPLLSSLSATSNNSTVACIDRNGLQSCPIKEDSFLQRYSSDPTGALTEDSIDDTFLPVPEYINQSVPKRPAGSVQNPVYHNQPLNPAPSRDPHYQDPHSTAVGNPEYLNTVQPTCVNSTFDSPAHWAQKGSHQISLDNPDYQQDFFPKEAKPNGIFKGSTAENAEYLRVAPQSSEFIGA
T1 sequence (P16234 24-1089): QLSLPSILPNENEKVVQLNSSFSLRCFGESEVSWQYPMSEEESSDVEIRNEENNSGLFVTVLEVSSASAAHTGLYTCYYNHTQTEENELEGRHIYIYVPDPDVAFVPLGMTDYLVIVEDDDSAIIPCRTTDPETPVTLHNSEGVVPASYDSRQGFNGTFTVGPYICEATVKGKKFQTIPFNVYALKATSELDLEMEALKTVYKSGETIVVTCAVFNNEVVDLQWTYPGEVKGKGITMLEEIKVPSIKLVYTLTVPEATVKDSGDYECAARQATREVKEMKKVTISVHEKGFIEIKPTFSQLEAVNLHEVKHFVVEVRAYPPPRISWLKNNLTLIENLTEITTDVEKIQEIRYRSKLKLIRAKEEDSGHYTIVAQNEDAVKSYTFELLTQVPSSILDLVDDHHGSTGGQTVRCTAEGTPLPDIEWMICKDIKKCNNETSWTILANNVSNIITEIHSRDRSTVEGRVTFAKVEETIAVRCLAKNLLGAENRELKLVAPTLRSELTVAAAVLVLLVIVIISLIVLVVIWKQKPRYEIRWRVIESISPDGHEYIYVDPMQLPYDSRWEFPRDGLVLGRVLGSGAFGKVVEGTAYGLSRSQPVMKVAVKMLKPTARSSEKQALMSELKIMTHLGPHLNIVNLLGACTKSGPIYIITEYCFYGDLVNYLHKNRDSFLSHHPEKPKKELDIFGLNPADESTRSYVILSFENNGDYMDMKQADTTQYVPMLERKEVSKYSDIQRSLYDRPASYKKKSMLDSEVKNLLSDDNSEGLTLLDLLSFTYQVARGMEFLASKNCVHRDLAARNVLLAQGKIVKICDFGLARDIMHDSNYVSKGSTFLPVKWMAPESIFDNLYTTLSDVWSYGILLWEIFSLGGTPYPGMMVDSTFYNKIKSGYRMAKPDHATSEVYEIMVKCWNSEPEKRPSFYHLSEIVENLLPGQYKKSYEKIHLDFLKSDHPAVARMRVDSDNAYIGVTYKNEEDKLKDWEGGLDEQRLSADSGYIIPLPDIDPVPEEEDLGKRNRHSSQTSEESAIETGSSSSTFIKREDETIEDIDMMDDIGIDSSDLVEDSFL
Chain of ErbB4 (Q15303 26-1308): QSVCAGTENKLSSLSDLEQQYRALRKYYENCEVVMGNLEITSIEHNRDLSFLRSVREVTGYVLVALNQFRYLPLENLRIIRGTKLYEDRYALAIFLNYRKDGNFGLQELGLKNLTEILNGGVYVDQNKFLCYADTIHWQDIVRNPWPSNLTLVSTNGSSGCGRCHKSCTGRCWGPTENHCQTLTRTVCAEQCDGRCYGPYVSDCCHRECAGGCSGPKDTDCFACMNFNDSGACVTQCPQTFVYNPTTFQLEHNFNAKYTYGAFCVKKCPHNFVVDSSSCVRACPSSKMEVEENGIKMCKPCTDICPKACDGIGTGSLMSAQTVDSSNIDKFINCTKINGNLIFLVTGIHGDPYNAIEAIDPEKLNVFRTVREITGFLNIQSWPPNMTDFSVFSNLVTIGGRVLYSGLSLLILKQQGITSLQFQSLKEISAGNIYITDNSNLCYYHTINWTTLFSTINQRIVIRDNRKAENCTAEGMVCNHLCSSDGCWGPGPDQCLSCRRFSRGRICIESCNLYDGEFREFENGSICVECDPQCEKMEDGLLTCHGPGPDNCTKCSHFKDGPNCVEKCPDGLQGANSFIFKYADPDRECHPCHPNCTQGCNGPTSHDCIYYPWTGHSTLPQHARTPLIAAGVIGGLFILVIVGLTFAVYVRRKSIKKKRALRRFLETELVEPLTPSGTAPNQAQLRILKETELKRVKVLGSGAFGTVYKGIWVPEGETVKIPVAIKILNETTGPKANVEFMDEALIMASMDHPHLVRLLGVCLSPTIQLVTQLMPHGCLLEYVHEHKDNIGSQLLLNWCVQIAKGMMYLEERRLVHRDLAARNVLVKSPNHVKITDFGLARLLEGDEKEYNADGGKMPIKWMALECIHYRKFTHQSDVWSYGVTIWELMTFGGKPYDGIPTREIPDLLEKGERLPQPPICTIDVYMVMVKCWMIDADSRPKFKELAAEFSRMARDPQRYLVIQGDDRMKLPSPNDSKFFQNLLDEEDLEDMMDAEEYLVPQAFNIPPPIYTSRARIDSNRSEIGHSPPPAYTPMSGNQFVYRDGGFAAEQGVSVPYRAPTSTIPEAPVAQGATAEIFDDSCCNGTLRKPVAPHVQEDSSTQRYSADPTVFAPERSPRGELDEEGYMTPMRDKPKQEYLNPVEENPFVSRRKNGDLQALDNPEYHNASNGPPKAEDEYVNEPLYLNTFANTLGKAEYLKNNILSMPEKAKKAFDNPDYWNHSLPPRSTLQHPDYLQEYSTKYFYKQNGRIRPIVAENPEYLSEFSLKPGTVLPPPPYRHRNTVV
Chain of EGFR (P00533 25-1210): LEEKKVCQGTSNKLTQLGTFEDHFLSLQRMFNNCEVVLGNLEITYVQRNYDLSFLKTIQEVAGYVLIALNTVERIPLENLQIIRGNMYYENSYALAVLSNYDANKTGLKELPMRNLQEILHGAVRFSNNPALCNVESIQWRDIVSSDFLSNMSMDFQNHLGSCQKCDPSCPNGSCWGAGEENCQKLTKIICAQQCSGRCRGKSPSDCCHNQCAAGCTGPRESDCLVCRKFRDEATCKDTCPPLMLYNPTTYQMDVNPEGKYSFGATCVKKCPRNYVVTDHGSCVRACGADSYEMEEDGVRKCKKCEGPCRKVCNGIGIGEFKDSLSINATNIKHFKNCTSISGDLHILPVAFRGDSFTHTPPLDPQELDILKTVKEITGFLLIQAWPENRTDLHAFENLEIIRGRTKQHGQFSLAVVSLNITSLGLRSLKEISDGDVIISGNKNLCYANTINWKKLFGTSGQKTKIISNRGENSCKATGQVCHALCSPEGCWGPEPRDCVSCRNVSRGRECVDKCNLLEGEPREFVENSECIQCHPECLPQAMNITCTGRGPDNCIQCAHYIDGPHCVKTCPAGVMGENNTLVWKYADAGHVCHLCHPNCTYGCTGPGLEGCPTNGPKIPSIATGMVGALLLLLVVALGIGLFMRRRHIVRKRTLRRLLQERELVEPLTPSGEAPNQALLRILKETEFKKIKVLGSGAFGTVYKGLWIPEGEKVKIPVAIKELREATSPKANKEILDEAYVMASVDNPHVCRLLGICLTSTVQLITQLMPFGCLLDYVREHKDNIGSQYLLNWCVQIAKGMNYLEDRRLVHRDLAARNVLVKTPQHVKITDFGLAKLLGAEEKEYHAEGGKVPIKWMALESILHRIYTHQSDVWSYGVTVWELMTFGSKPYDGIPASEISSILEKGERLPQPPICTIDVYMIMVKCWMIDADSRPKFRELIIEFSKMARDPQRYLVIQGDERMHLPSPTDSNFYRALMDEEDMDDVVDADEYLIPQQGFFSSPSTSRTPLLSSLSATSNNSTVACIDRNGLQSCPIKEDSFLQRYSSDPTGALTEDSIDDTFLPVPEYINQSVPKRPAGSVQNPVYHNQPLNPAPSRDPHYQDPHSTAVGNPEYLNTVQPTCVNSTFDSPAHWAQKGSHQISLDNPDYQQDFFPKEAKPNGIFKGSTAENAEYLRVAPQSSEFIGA

33P radiolabeled kinase assay (Millipore KinaseProfiler) [1]: completely inhibited at 10 μM or 1 μM | inhibition at 1 µM [2]: 58% | inhibition at 10 µM [3]: 88% | 33P radiolabeled kinase assay (Millipore KinaseProfiler) [4]: completely inhibited at 10 μM or 1 μM | 33P radiolabeled kinase assay (Millipore KinaseProfiler) [5]: completely inhibited at 10 μM or 1 μM | inhibition at 1 µM [6]: 100% | 33P radiolabeled kinase assay (Millipore KinaseProfiler) [7]: completely inhibited at 10 μM or 1 μM | 33P radiolabeled kinase assay (Millipore KinaseProfiler) [8]: completely inhibited at 10 μM or 1 μM
SMILES: CN1CCN(c2ccc(Nc3ncc4nc(Nc5ccc(Br)cc5)n(C5CCCC5)c4n3)cc2)CC1 [SKLB-178]
